# Experiments:
# [1] = Cytotoxicity assay in human cells (WST-1); assay type: cell-based; conditions: HUVEC, 24 h exposure, WST-1 absorbance after 4h and 24h, read-out: concentrations at which not cytotoxic
# Protocol: Example 4.Cytotoxicity assays in human cells. Cytotoxicity of costic acid was measured in human umbilical vein endothelial cells (HUVEC), using the Cell Proliferation Reagent WST-1 (Cat. No. 13396300, Roche). The assay was performed according to the instructions protocol. Cells (7500 per well) were exposed to different concentrations of costic acid for 24 h before adding the WST-1 reagent. After 4h and again after 24h the absorbance was measured using an Optimax UV/VIS spectrometer (wavelengths: 440nm and 650nm). Costic acid was not cytotoxic at concentrations up to 230 micromolar.
# V. destructor = assay: In vivo vial experiments with V. destructor: mite mortality on exposure to treated filter paper; parameters: species or system Varroa destructor
# Protocol: In vivo Experiments with V. destructor. The mites (V. destructor) were collected from colonies of A. mellifera. For mite collection two different methods were used: The first method involved removal of the mites from infected adult bees using a soft brush with the help of a stereoscope. In method b) infected adult honeybees were transferred directly from bee frames into a wire-screen cylinder. Then the cylinder was placed inside a second Plexiglas cylinder and CO2 was released for 5 min with a flow rate of 5 l/min causing anaesthesia to the mites (as well as to the bees). The whole apparatus was then shaken several times to separate the mites from the bees. In a few minutes they had recovered from the effect of the anaesthesia.^39
# Using a stereoscope binocular set varroa was placed in 20 mL glass vials. Stock solutions of the extraction materials were prepared in acetone in 10 mg/mL concentrations. In each experiment 20, 60, or 100 microliter aliquots of the stock solution were placed on filter paper adjusted to the cups of 20 ml vials, each containing five living mites. Acetone was used in the control experiments which were performed in five replicates. In both cases the solvent was allowed to evaporate before covering the vials. The vials were kept in an incubator at 37 C. Mortality of mites was recorded under a stereoscope binocular set after 5, 8, 12, and 19 hours.
# varroa = assay: Field tests on bee populations: count of dead varroa after spraying; assay type: in vivo, Varroa destructor; conditions: after ten days; commercial acaricides; sprayed directly on the bees (100 mL per group, oxalic acid 70 mL)
# Protocol: Example 5. Field Tests on bee populations. Field test were conducted using 40 bees on each trial at various locations on the island of Crete such as the Lassithi Plateau and the Messara Plains. In the field tests, Group B' extract was used in a solution of 1 g of this extract in 1 ml ethanol that was further diluted with water to a total volume of 1 L. A second solution was prepared as described above, using 2 g of Group B' mixture. For comparison purposes, each bee population was divided in […] groups. Two of these groups were treated with commercial acaricides A fifth, control group, was sprayed with deionized water. As known acaricide preparations were used a) BAYVAROL (active ingredient: Flumethrine) and b) a 4% solution of oxalic acid in 50% sugar solution. The total volume of solutions that were sprayed directly on the bees was 100 mL per group. In the case of the oxalic acid solution, the volume was 70 mL. Dead varroa was collected on a sheet of paper covered with Vaseline and sunflower oil. After ten days, the number of dead varroa was counted. Considering the number of dead varroa in the oxalic acid experiment as 100%, the respective numbers were 60% for either extract preparation, 55% for BAYVAROL and 8% for the control.
SMILES,MNTC at 24 h [1] [µM],"optimal concentration of the stock solution (V. destructor; 10 mg/mL stock solution in acetone, higher concentrations did not enhance activity) [microliter per vial]","percent mortality of varroa (V. destructor; Fig. 1, 20 or 60 or 100 microliters of 10mg/mL acetone solutions)","time after application of the largest activity difference between costic acid and total extract (V. destructor; Fig. 2, activity as a function of time of application) [h]","acaricidal activity (V. destructor; in vivo vial experiments, fractions and isolated components of D. viscosa extract)","number of dead varroa, oxalic acid experiment as 100% (varroa) [%]"
C=C(C(=O)O)C1CCC2(C)CCCC(=C)C2C1 (stereo not drawn) [costic acid],≥ 230,60,increases drastically,8,acaricidal activity rested in costic acid,–
O=C(O)C(=O)O [oxalic acid],–,–,–,–,–,100

# — patent EP2346328B1, “USE OF COSTIC ACID OR EXTRACTS OF DITTRICHIA VISCOSA AGAINST VARROA DESTRUCTOR” (Katerinopoulos, E. Haralambos, priority 2008, dated 2009)
